From paper PMC9632963, “Preclinical characterization and phase I clinical trial of CT053PTSA targets MET, AXL, and VEGFR2 in patients with advanced solid tumors” (Frontiers in Immunology, 2022)

How the values were obtained:
[1] = tested on: SNU-601; assay: Cell proliferation assay (CellTiter-Glo, 72 hours); format: cell-based; details: Homo sapiens, read-out: IC50 anti-proliferative
Procedure: These cell lines were obtained from American Type Culture Collection (ATCC), Japanese Collection of Research Bioresources (JCRB), Shanghai Institutes of Biological Sciences, CAS (SIBS), Korean Cell Line Bank (KCLB) or National Institutes of Health (NIH). […] Cell viability was measured after 72 hours using a CellTiter-Glo Luminescent Cell Viability Assay Kit (Promega, WI, USA) according to the manufacturer’s instructions.

[2] = tested on: SNU-5 CDX xenografts; assay: In vivo efficacy study, CDX model; parameters: species or system BALB/cA nude mice
Procedure: (§1) Human tumor xenografts were established in female BALB/cA nude mice (5-6 weeks old) by administering the SNU-5 and MKN-45 cells, which have high MET expression levels. For efficacy studies in patient-derived tumor xenograft (PDX) mouse models, MET-overexpressing GA0046 and GA3121 tumors (obtained from Crownbio, CA, USA) were established by directly implanting surgical tissues into immunodeficient mice. […] The subcutaneous tumor size and body weight were measured twice weekly. The tumor volumes were determined by measuring two perpendicular diameters with calipers and calculated as (length × width^2)/2.

[3] = tested on: MKN-45 CDX xenografts; assay: In vivo efficacy study, CDX model; parameters: species or system BALB/cA nude mice
Procedure: as §1

[4] = molecular target: FLT1 (Homo sapiens, UniProt P17948); assay: Kinase inhibition assay (LANCE or HTRF); format: biochemical; details: ATP at Km
Sequence of FLT1 (P17948 27-1338): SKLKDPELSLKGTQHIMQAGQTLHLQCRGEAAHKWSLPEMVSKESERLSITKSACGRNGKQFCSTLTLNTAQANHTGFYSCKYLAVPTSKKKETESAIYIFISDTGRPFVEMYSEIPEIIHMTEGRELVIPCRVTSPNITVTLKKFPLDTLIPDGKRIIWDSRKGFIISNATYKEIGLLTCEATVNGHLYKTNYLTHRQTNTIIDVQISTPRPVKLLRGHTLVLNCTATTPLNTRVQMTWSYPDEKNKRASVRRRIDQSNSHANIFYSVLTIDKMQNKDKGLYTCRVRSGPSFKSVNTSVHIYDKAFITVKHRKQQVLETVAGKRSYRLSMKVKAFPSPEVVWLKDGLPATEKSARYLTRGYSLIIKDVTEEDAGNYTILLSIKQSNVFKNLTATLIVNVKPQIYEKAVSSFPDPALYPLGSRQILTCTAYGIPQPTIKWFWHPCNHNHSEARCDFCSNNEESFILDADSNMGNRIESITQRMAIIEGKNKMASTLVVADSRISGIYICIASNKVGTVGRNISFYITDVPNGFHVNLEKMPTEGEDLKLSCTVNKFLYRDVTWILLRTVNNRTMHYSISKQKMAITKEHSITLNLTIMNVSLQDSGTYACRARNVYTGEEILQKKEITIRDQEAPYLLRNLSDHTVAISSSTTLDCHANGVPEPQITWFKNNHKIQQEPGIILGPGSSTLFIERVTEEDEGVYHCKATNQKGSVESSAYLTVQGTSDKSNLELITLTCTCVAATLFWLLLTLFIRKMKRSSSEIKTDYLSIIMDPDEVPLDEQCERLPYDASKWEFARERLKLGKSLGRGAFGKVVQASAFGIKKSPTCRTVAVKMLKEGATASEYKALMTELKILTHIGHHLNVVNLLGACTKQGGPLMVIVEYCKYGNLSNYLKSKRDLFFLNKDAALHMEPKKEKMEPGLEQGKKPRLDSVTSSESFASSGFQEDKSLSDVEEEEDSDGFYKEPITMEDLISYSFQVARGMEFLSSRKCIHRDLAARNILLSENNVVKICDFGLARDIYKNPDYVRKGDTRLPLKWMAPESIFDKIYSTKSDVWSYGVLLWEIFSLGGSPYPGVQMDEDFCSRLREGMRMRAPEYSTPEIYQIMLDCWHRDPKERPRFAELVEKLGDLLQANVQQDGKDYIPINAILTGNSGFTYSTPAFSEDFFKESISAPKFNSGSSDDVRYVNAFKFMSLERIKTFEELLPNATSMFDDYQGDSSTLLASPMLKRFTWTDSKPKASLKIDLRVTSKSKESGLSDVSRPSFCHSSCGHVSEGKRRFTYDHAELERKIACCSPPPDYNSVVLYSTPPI
Procedure: The IC50 values were determined by measuring phosphorylation of peptide substrate poly at ATP concentrations at the Km.

[5] = 3 mg/kg once per day oral gavage

SMILES: Cc1c(C(=O)Nc2ccc(Oc3ccnc4cc(OCC(C)(C)O)ccc34)c(F)c2)c(=O)n(-c2ccccc2)n1C [CT053]
- IC50 [1]: > 10 µM
- TGI ([2]; 1 mg/kg once per day oral gavage): 32%
- TGI [2, 5]: 87%
- TGI [3, 5]: 31%
- TGI ([3]; 10 mg/kg once per day oral gavage): 85%
- TGI ([3]; 20 mg/kg once per day oral gavage): 97%
- IC50 [4]: 6.1 µM
